Reference: patent US11440970B2, “Nicotine-binding antibodies” (priority 2017, dated 2022)
Read-outs that look alike come from different tables or passages of the source.

Experiments:
[1] = mice; cited from earlier work
[2] = cited from earlier work
[3] = Non-GLP 4-week repeated high-dose toxicology study; assay type: in vivo; conditions: nicotine 1 mg/kg/day s.c. infusion for 28d; rats
Method: 8D1-IgG4 was dosed i.v. once weekly at 200 mg/kg.
Assessment of toxicity was based on mortality, clinical observations, and body weight during the course of the 28-day study, and at the end of study organ weights, gross anatomic pathology, hematology, serum clinical chemistry, and coagulation was performed. Histopathology of selected tissues (heart, liver, lung, kidney, spleen, skeletal muscle, brain, colon, stomach, ovary, and testis) is pending. Tissues were fixed immediately in formalin, and processed for embedding in paraffin, staining with H&E, and review by a veterinary pathologist.

[4] = rats; cited from earlier work

CN1CCC[C@H]1c1cccnc1 [nicotine]
LD50 [1]: 3 mg/kg | lethal dose (may be as high as) ([2]; human adult): 1.0 to 7.1 mg/kg | lethal dose (may be as high as) ([2]; in vivo): ≥ 500 mg | hematology finding in animals that received nicotine [3]: slight polychromasia | LD50 [4]: 50 mg/kg
